Assay results: article PMC6767909 (Journal of medicinal chemistry, 2019)
Like-named read-outs stand apart in the source and are kept apart here.

Legend:
[1] = target: T1, human GIVA cPLA2 (Homo sapiens, UniProt P47712); test: lipidomics-based mixed micelle assay, GIVA cPLA2; type: biochemical; conditions: for GIVA cPLA2 XI(50): separated trans/cis diastereomers, lipidomics-based assay
T1 sequence (P47712 1-749): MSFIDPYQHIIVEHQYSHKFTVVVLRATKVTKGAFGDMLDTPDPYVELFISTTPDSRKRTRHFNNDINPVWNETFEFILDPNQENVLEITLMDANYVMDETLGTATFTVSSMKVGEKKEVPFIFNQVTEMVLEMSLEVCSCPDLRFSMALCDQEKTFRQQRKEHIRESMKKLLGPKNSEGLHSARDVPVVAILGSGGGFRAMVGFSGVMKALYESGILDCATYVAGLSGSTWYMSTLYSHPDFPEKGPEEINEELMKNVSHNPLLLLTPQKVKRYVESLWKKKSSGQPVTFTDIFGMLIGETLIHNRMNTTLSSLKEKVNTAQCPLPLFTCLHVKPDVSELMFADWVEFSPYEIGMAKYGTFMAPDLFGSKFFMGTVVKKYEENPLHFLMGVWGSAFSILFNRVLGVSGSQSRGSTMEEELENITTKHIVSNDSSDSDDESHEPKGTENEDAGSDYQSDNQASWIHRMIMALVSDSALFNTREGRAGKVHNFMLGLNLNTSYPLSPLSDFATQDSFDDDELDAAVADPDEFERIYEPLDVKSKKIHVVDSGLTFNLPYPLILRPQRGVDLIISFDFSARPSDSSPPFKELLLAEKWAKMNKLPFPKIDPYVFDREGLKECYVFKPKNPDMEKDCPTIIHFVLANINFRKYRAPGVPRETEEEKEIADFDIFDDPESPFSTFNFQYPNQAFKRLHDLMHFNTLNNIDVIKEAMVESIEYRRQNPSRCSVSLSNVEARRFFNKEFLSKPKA

[2] = target: T2, recombinant human GVIA iPLA2 (Homo sapiens, UniProt O60733); test: lipidomics-based mixed micelle assay, GVIA iPLA2; type: biochemical
T2 sequence (O60733 1-806): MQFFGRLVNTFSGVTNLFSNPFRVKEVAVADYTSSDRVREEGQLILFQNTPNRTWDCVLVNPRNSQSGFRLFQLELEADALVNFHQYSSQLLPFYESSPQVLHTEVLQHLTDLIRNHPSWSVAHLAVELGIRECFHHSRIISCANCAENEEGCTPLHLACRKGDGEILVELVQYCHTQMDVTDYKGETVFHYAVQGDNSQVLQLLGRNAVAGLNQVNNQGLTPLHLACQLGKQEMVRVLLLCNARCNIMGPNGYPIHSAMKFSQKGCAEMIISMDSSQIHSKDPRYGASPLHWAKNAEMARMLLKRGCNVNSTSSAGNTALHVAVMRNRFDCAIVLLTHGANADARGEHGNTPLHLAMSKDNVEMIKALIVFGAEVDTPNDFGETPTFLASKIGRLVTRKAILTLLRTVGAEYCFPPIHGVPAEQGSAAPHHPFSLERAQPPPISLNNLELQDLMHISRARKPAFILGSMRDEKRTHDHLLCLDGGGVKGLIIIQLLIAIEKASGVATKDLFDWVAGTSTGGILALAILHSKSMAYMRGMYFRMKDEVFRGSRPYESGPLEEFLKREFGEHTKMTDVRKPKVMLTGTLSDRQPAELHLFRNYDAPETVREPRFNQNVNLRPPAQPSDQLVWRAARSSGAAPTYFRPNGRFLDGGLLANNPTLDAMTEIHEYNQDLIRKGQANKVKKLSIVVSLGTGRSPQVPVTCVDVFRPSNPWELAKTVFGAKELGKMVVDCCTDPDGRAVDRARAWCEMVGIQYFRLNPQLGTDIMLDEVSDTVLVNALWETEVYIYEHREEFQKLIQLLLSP

[3] = tested on: INS-1 cells; type: cell-based
[4] = target: T2, recombinant human GVIA iPLA2; conditions: cited from earlier work; for GVIA iPLA2 XI(50): radioactivity-based assay
[5] = tested on: β-cell; conditions: cited from earlier work

In the case of `CCC[C@@H]1OC(=O)[C@@H]1CCCc1ccccc1` (racemic) [cis-9d, cis-(±)-3-(3-Phenylpropyl)-4-propyloxetan-2-one], the IC50 [1] is reported as 950 nM and the “GIVA cPLA2 XI(50)” value [1] is reported as 0.0019 mole fraction.
For `CCC[C@@H]1OC(=O)[C@@H]1CCCc1ccc(OC)cc1` (racemic) [cis-9f, cis-(±)-3-(3-(4-Methoxyphenyl)propyl)-4-propyloxetan-2-one], the IC50 [2] was 20000 nM, the IC50 [1] was 20 nM and the “times more potent for GIVA cPLA2 than for GVIA iPLA2” value ([1]; GIVA cPLA2 over GVIA iPLA2) was ~1000 times. The “GIVA cPLA2 XI(50)” value [1] was 0.00004 mole fraction.
Molecule `CCC[C@@H]1OC(=O)[C@@H]1CCCCc1ccc2ccccc2c1` (racemic) [cis-9j, cis-(±)-3-(4-(Naphthalen-2-yl)butyl)-4-propyloxetan-2-one] has an IC50 [2] of 1000 nM.
With `CCC[C@H]1OC(=O)[C@@H]1CCCc1ccccc1` (racemic) [trans-9d, trans-(±)-3-(3-Phenylpropyl)-4-propyloxetan-2-one] the IC50 [2] was 95 nM.
For `CCC[C@H]1OC(=O)[C@@H]1CCCc1ccc2ccccc2c1` (racemic) [trans-9e, trans-(±)-3-(3-(Naphthalen-2-yl)propyl)-4-propyloxetan-2-one], the IC50 [2] was 150 nM.
With `CCC[C@H]1OC(=O)[C@@H]1CCCc1ccc(OC)cc1` (racemic) [trans-9f, trans-(±)-3-(3-(4-Methoxyphenyl)propyl)-4-propyloxetan-2-one] the IC50 [2] was 95 nM.
For `CCC[C@H]1OC(=O)[C@@H]1CCCCc1ccccc1` (racemic) [trans-9k, trans-(±)-3-(4-Phenylbutyl)-4-propyloxetan-2-one], the “times more active against GVIA iPLA2 than GIVA cPLA2 (selectivity)” value ([2]; GVIA iPLA2 over GIVA cPLA2) was 22,000 times, the “potency on GVIA iPLA2 relative to FKGK18” value ([2]; compared with fluoroketone FKGK18) was “a hundred times more potent” and the “GIVA cPLA2 XI(50)” value [1] was 0.042 mole fraction. The “inhibition (decrease) of cytokine-induced β-cell apoptosis” value ([3]; 0.10 μM, co-treatment with IL-1β + IFNγ, 16 h) was “minimal and non-significant effect” and the “cytotoxicity on continuous exposure, compound alone” value ([3]; 0.10 or 1.0 μM, no cytokines) was “not cytotoxic”.
For `O=C(CCCCc1ccccc1)C(F)(F)C(F)(F)F` [2a], the “GVIA iPLA2 XI(50)” value ([4]; listed as FKGK11) is listed as 0.0014 mole fraction.
In the case of `COc1ccc(CCCCC(=O)C(F)(F)C(F)(F)F)cc1` [2b], the “GVIA iPLA2 XI(50)” value ([4]; listed as GK187) is given as 0.0001 mole fraction.
In the case of `O=C(CCCCc1ccc2ccccc2c1)C(F)(F)F` [compound 3], the “times more potent for GVIA iPLA2 than for GIVA cPLA2” value [4] is listed as 195 times, the “times more potent for GVIA iPLA2 than for GV sPLA2” value [4] is listed as > 455 times and the “inhibition of β-cell apoptosis” value [5] is listed as “able to inhibit β-cell apoptosis”.
In the case of `COc1ccc(CCSCC(=O)c2noc(C(C)(C)C)n2)cc1` [compound 4], the “GVIA iPLA2 XI(50)” value [4] is given as 0.0057 mole fraction.
